Source: patent US10760110B2, “Antibiotic testing and screening system” (priority 2017, dated 2020)
Values after ≈ are worked out from the molar mass of the structure shown. Like-named read-outs stand apart in the source and are kept apart here.

Experiments:
[1] = system: A. baumannii KW1 strains with β-lactamase plasmids; experiment: Etest MIC of β-lactams, extended-spectrum β-lactamase, AmpC β-lactamase or carbapenemase (Table 18); format: cell-based, Acinetobacter baumannii
Description: DNA fragments of the resistance genes along with their flanking regions were amplified from clinical plasmids via PCR with specific primer pairs. The resulting PCR fragments were digested and then cloned into the plasmid pYMAb5 or pYMAb5Tc. The resulting plasmids were then transformed into A. baumannii KW1 via electroporation.
(§1) The MICs of antibiotics were determined using the Etest (Biodisk AB, Sweden) according to the manufacturer's instructions. The MICs from the Etest, which fall between standard two-fold dilutions, were rounded up to the next highest two-fold value. The MICs of ceftazidime and cefotaxime against K. pneumoniae NVT1001 harbouring the pACYC177 plasmid with blaOXA-48 were further determined using a broth microdilution test according to the recommendations of the CLSI,^25 and the results were interpreted according to the breakpoints established by the CLSI in 2017.^25 Meanwhile, due to the lack of CLSI breakpoints in 2016 and 2017, the results for cephalothin were interpreted according to the breakpoints established by the CLSI in 2015,^26 and the results for moxifloxacin were interpreted according to the breakpoints established by the EUCAST in 2017.^27

[2] = system: K. pneumoniae NVT1001 ΔramRΔompK35/36 mutant and its revertants; experiment: Etest MIC, ΔramRΔompK35/36 mutant and its revertants (Table 7); format: cell-based; conditions: Klebsiella pneumoniae
Description: The allelic-exchange method was used to restore the wild-type gene in the K. pneumoniae NVT1001 mutants with constructed chromosome-mediated resistance mechanisms, as described by Tsai et al.^19 Briefly, a DNA fragment of the entire wild-type gene sequence along with flanking regions was amplified from K. pneumoniae NVT1001 using PCR with specific primers. The resulting PCR fragment was digested and then cloned into pUT-KB. For homologous recombination, this plasmid was transformed into E. coli S17-1 λpir^23 via electroporation and mobilized into the K. pneumoniae NVT1001 mutant via conjugation. […] After incubation in 20 mL BHI broth for 6 hours at 37° C. in the absence of kanamycin, the fully grown cultures were spread onto LB agar plates supplemented with 10% sucrose. After the double crossover occurred, the sucrose-resistant and kanamycin-susceptible colonies were selected, and the restoration of the wild-type gene was confirmed via DNA sequencing.
as §1

[3] = system: K. pneumoniae NVT1001 and its ΔompK35/36 and/or ΔramR mutants; experiment: Etest MIC, OmpK35/36 loss and AcrAB-TolC overexpression (ΔramR) strains (Table 6); format: cell-based, Klebsiella pneumoniae; conditions: Klebsiella pneumoniae
Description: as §1

[4] = system: K. pneumoniae NVT1001 strains with Sul/Dfr plasmids; experiment: Etest MIC of folate pathway inhibitors, OmpK35/36 loss, ΔramR and/or drug-resistant target enzyme (Table 15); format: cell-based, Klebsiella pneumoniae; conditions: Klebsiella pneumoniae
Description: DNA fragments of the resistance genes along with their flanking regions were amplified from clinical plasmids via PCR with specific primer pairs. The resulting PCR fragments were digested and then cloned into the plasmid pACYC177 or pACYC184. The resulting plasmids were then transformed into K. pneumoniae strain NVT1001 via electroporation. The recombinant bacteria were plated onto LB agar plates containing kanamycin (50 mg/L) or chloramphenicol (50 mg/L), and the presence of the cloned gene was confirmed via PCR and DNA sequencing.
as §1

Compound: C[C@H]1[C@H](NC(=O)/C(=N\OC(C)(C)C(=O)O)c2csc(N)n2)C(=O)N1S(=O)(=O)O [ATM]
- MIC ([1]; KW1, no supplemental plasmid): 16 µg/mL
- MIC ([1]; KW1 with ADC-30 on pYMAb5): 64 µg/mL
- MIC ([1]; KW1 with CTX-M-15 on pYMAb5): >256 µg/mL
- MIC ([1]; KW1 with IMP-1 on pYMAb5): 16 µg/mL
- MIC ([1]; KW1 with NDM-1 on pYMAb5): 12 µg/mL
- MIC ([1]; KW1 with OXA-23 on pYMAb5): 16 µg/mL
- MIC ([1]; KW1 with OXA-58 on pYMAb5): 16 µg/mL
- MIC ([1]; KW1 with OXA-66 on pYMAb5): 12 µg/mL
- MIC ([1]; KW1 with OXA-72 on pYMAb5): 16 µg/mL
- MIC ([1]; KW1 with VEB-3 on pYMAb5): >256 µg/mL
- MIC ([1]; KW1 with VIM-1 on pYMAb5): 12 µg/mL
- MIC ([1]; KW1 with shuttle vector pYMAb5): 12 µg/mL

Compound: Cc1cc(NS(=O)(=O)c2ccc(N)cc2)no1 [Sulfamethoxazole]
- MIC ([2]; ΔramRΔompK35/36::ompK35/36 revertant): > 1020 µg/mL
- MIC ([2]; ΔramRΔompK35/36::ompK35 revertant): > 1020 µg/mL
- MIC ([2]; ΔramRΔompK35/36::ompK36 revertant): > 1020 µg/mL
- MIC ([2]; ΔramRΔompK35/36::ramR revertant): > 1020 µg/mL
- MIC ([2]; ΔramRΔompK35/36::ramR::ompK35/36 revertant): 256 µg/mL
- MIC ([2]; ΔramRΔompK35/36::ramR::ompK35 revertant): > 1020 µg/mL
- MIC ([2]; ΔramRΔompK35/36::ramR::ompK36 revertant): 256 µg/mL
- MIC ([2]; ΔramRΔompK35/36 mutant): > 1020 µg/mL
- MIC ([3]; WT, NVT1001): 256 µg/mL (≈ 1.01 mM)
- MIC ([3]; Δ35, ΔompK35 mutant): 256 µg/mL (≈ 1.01 mM)
- MIC ([3]; Δ35/36, ΔompK35/36 mutant): > 1020 µg/mL
- MIC ([3]; Δ36, ΔompK36 mutant): > 1020 µg/mL
- MIC ([3]; ΔramR mutant): > 1020 µg/mL
- MIC ([3]; ΔramRΔ35, ΔramRΔompK35 mutant): > 1020 µg/mL
- MIC ([3]; ΔramRΔ35/36, ΔramRΔompK35/36 mutant): > 1020 µg/mL
- MIC ([3]; ΔramRΔ36, ΔramRΔompK36 mutant): > 1020 µg/mL
- MIC ([4]; DfrA1 on pACYC177, WT (NVT1001), read-out: MIC): 256 µg/mL
- MIC ([4]; DfrA1 on pACYC177, ΔompK35/36 mutant): > 1020 µg/mL
- MIC ([4]; DfrA1 on pACYC177, ΔompK35 mutant): > 1020 µg/mL
- MIC ([4]; DfrA1 on pACYC177, ΔompK36 mutant): > 1020 µg/mL
- MIC ([4]; DfrA1 on pACYC177, ΔramR mutant): > 1020 µg/mL
- MIC ([4]; DfrA1 on pACYC177, ΔramRΔompK35/36 mutant): > 1020 µg/mL
- MIC ([4]; DfrA1 on pACYC177, ΔramRΔompK35 mutant): > 1020 µg/mL
- MIC ([4]; DfrA1 on pACYC177, ΔramRΔompK36 mutant): > 1020 µg/mL
- MIC ([4]; DfrA16 on pACYC177, WT (NVT1001), read-out: MIC): 256 µg/mL
- MIC ([4]; DfrA16 on pACYC177, ΔompK35/36 mutant): > 1020 µg/mL
- MIC ([4]; DfrA16 on pACYC177, ΔompK35 mutant): > 1020 µg/mL
- MIC ([4]; DfrA16 on pACYC177, ΔompK36 mutant): > 1020 µg/mL
- MIC ([4]; DfrA16 on pACYC177, ΔramR mutant): > 1020 µg/mL
- MIC ([4]; DfrA16 on pACYC177, ΔramRΔompK35/36 mutant): > 1020 µg/mL
- MIC ([4]; DfrA16 on pACYC177, ΔramRΔompK35 mutant): > 1020 µg/mL
- MIC ([4]; DfrA16 on pACYC177, ΔramRΔompK36 mutant): > 1020 µg/mL
- MIC ([4]; Sul1 on pACYC177, WT (NVT1001), read-out: MIC): > 1020 µg/mL
- MIC ([4]; Sul1 on pACYC177, ΔompK35/36 mutant): > 1020 µg/mL
- MIC ([4]; Sul1 on pACYC177, ΔompK35 mutant): > 1020 µg/mL
- MIC ([4]; Sul1 on pACYC177, ΔompK36 mutant): > 1020 µg/mL
- MIC ([4]; Sul1 on pACYC177, ΔramR mutant): > 1020 µg/mL
- MIC ([4]; Sul1 on pACYC177, ΔramRΔompK35/36 mutant): > 1020 µg/mL
- MIC ([4]; Sul1 on pACYC177, ΔramRΔompK35 mutant): > 1020 µg/mL
- MIC ([4]; Sul1 on pACYC177, ΔramRΔompK36 mutant): > 1020 µg/mL
- MIC ([4]; Sul2 on pACYC177, WT (NVT1001), read-out: MIC): > 1020 µg/mL
- MIC ([4]; Sul2 on pACYC177, ΔompK35/36 mutant): > 1020 µg/mL
- MIC ([4]; Sul2 on pACYC177, ΔompK35 mutant): > 1020 µg/mL
- MIC ([4]; Sul2 on pACYC177, ΔompK36 mutant): > 1020 µg/mL
- MIC ([4]; Sul2 on pACYC177, ΔramR mutant): > 1020 µg/mL
- MIC ([4]; Sul2 on pACYC177, ΔramRΔompK35/36 mutant): > 1020 µg/mL
- MIC ([4]; Sul2 on pACYC177, ΔramRΔompK35 mutant): > 1020 µg/mL
- MIC ([4]; Sul2 on pACYC177, ΔramRΔompK36 mutant): > 1020 µg/mL
- MIC ([4]; no supplemental plasmid, WT (NVT1001), read-out: MIC): 256 µg/mL
- MIC ([4]; no supplemental plasmid, ΔompK35/36 mutant): > 1020 µg/mL
- MIC ([4]; no supplemental plasmid, ΔompK35 mutant): 256 µg/mL
- MIC ([4]; no supplemental plasmid, ΔompK36 mutant): > 1020 µg/mL
- MIC ([4]; no supplemental plasmid, ΔramR mutant): > 1020 µg/mL
- MIC ([4]; no supplemental plasmid, ΔramRΔompK35/36 mutant): > 1020 µg/mL
- MIC ([4]; no supplemental plasmid, ΔramRΔompK35 mutant): > 1020 µg/mL
- MIC ([4]; no supplemental plasmid, ΔramRΔompK36 mutant): > 1020 µg/mL

Compound: C[C@@H](O)[C@H]1C(=O)N2C(C(=O)O)=C(S[C@@H]3CN[C@H](C(=O)N(C)C)C3)[C@H](C)[C@H]12 [MP]
- MIC ([1]; KW1, no supplemental plasmid): 0.5 µg/mL
- MIC ([1]; KW1 with ADC-30 on pYMAb5): 3 µg/mL
- MIC ([1]; KW1 with CTX-M-15 on pYMAb5): 2 µg/mL
- MIC ([1]; KW1 with IMP-1 on pYMAb5): 12 µg/mL
- MIC ([1]; KW1 with NDM-1 on pYMAb5): >32 µg/mL
- MIC ([1]; KW1 with OXA-23 on pYMAb5): >32 µg/mL
- MIC ([1]; KW1 with OXA-58 on pYMAb5): 6 µg/mL
- MIC ([1]; KW1 with OXA-66 on pYMAb5): 8 µg/mL
- MIC ([1]; KW1 with OXA-72 on pYMAb5): >32 µg/mL
- MIC ([1]; KW1 with VEB-3 on pYMAb5): 0.5 µg/mL
- MIC ([1]; KW1 with VIM-1 on pYMAb5): >32 µg/mL
- MIC ([1]; KW1 with shuttle vector pYMAb5): 0.5 µg/mL

Compound: C[C@@H](O)[C@H]1C(=O)N2C(C(=O)O)=C(S[C@@H]3CN[C@H](CNS(N)(=O)=O)C3)[C@H](C)[C@H]12 [DOR]
- MIC ([1]; KW1, no supplemental plasmid): 0.38 µg/mL
- MIC ([1]; KW1 with ADC-30 on pYMAb5): 4 µg/mL
- MIC ([1]; KW1 with CTX-M-15 on pYMAb5): 1.5 µg/mL
- MIC ([1]; KW1 with IMP-1 on pYMAb5): 16 µg/mL
- MIC ([1]; KW1 with NDM-1 on pYMAb5): >32 µg/mL
- MIC ([1]; KW1 with OXA-23 on pYMAb5): >32 µg/mL
- MIC ([1]; KW1 with OXA-58 on pYMAb5): 6 µg/mL
- MIC ([1]; KW1 with OXA-66 on pYMAb5): 8 µg/mL
- MIC ([1]; KW1 with OXA-72 on pYMAb5): >32 µg/mL
- MIC ([1]; KW1 with VEB-3 on pYMAb5): 0.38 µg/mL
- MIC ([1]; KW1 with VIM-1 on pYMAb5): >32 µg/mL
- MIC ([1]; KW1 with shuttle vector pYMAb5): 0.38 µg/mL
